Results from patent US9980486B2, “Herbicidal quinolines” (Syngenta Participations AG, priority 2014, dated 2018).

How the values were obtained:
Type in all cases: in vivo
[1] = system: Ipomoea hederacea (IPOHE); assay: Experiment B1 glasshouse herbicide test, pre- and post-emergence, percentage damage; conditions: 1000 g/h, evaluated after 13 days
Description: (§1) Seeds of a variety of test species are sown in standard soil in pots (Lolium perenne (LOLPE), Solanum nigrum (SOLNI), Amaranthus retoflexus (AMARE), Setaria faberi (SETFA), Echinochloa crus-galli (ECHCG), Ipomoea hederacea (IPOHE)). After cultivation for one day (pre-emergence) or after 8 days cultivation (post-emergence) under controlled conditions in a glasshouse (at 24/16° C., day/night; 14 hours light; 65% humidity), the plants are sprayed with an aqueous spray solution derived from the formulation of the technical active ingredient in acetone/water (50:50) solution containing 0.5% Tween 20 (polyoxyethelyene sorbitan monolaurate, CAS RN 9005-64-5). […] The test plants are then grown in a glasshouse under controlled conditions in a glasshouse (at 24/16° C., day/night; 14 hours light; 65% humidity) and watered twice daily. After 13 days for pre and post-emergence, the test is evaluated for the percentage damage caused to the plant. The biological activities are shown in the following table on a five point scale (5=80-100%; 4=60-79%; 3=40-59%; 2=20-39%; 1=0-19%).

Setaria faberi (SETFA) = assay: as above; conditions: 1000 g/h, evaluated after 13 days
Description: as §1

Lolium perenne (LOLPE) = assay: as above; conditions: 1000 g/h, evaluated after 13 days
Description: as §1

[2] = system: Amaranthus retoflexus (AMARE); assay: as above; conditions: 1000 g/h, evaluated after 13 days
Description: as §1

[3] = system: Echinochloa crus-galli (ECHCG); assay: as above; conditions: 1000 g/h, evaluated after 13 days
Description: as §1

Solanum nigrum (SOLNI) = assay: as above; conditions: 1000 g/h, evaluated after 13 days
Description: as §1

[4] = system: Eriochloa villosa (ERBVI); assay: Experiment B2 comparative glasshouse herbicide test, pre- and post-emergence, phytotoxicity
Description: (§2) A comparative test is performed to compare the efficacy of quinoline compounds of the present invention with quinoline compounds taught in WO2014/037342 and napthyridines taught in WO2013/092834. Seeds of a variety of test species were sown in standard soil in pots. After cultivation for one day (pre-emergence) or after 10 days cultivation (post-emergence) under controlled conditions in a glasshouse (at 24/16° C., day/night; 14 hours light; 65% humidity), the plants were sprayed with an aqueous spray solution derived from the formulation of the technical active ingredient in 0.6 ml acetone and 45 ml formulation solution containing 10.6% Emulsogen EL (Registry number 61791-12-6), 42.2% N-methyl pyrrolidone, 42.2% dipropylene glycol monomethyl ether (CAS RN 34590-94-8) and 0.2% X-77 (CAS RN 11097-66-8). The test plants were then grown in a glasshouse under controlled conditions in a glasshouse (at 24/16° C., day/night; 14 hours light; 65% humidity) and watered twice daily. After 14 days for post-emergence and 21 days for pre-emergence and phytotoxicity evaluated using a five point scale (5=80-100%; 4=60-79%; 3=40-59%; 2=20-39%; 1=0-19%). Test Plants:—Eriochloa villosa (ERBVI), Panicum miliaceum (PANMI).

[5] = system: Panicum miliaceum (PANMI); assay: as above
Description: as §2

[6] = POST Application (post-emergence, after 8 days cultivation)
[7] = PRE Application (pre-emergence, after cultivation for one day)
[8] = POST Application (60 g/ha), after 10 days cultivation, evaluated after 14 days
[9] = PRE Application (250 g/ha), after cultivation for one day, evaluated after 21 days

| Structure (SMILES) | percentage damage caused to the plant, five point scale, IPOHE [1, 6] | percentage damage caused to the plant, five point scale, IPOHE [1, 7] | percentage damage caused to the plant, five point scale, SETFA (Setaria faberi (SETFA); [6]) | percentage damage caused to the plant, five point scale, SETFA (Setaria faberi (SETFA); [7]) | percentage damage caused to the plant, five point scale, LOLPE (Lolium perenne (LOLPE); [6]) | percentage damage caused to the plant, five point scale, LOLPE (Lolium perenne (LOLPE); [7]) | percentage damage caused to the plant, five point scale, AMARE [2, 6] | percentage damage caused to the plant, five point scale, AMARE [2, 7] | percentage damage caused to the plant, five point scale, ECHCG [3, 6] | percentage damage caused to the plant, five point scale, ECHCG [3, 7] | percentage damage caused to the plant, five point scale, SOLNI (Solanum nigrum (SOLNI); [6]) | percentage damage caused to the plant, five point scale, SOLNI (Solanum nigrum (SOLNI); [7]) | phytotoxicity, five point scale, ERBVI [4, 8] | phytotoxicity, five point scale, ERBVI [4, 9] | phytotoxicity, five point scale, PANMI [5, 8] | phytotoxicity, five point scale, PANMI [5, 9] |
| --- | --- | --- | --- | --- | --- | --- | --- | --- | --- | --- | --- | --- | --- | --- | --- | --- |
| Cc1ccc(-c2c(C(F)(F)F)c(C(=O)Nc3nnnn3C)cc3cccnc23)cc1 [Compound 1.017] | 5 (5=80-100%) | 5 (5=80-100%) | 5 (5=80-100%) | 5 (5=80-100%) | 4 (4=60-79%) | 4 (4=60-79%) | 5 (5=80-100%) | 5 (5=80-100%) | 5 (5=80-100%) | 5 (5=80-100%) | 5 (5=80-100%) | 5 (5=80-100%) | – | – | – | – |
| Cc1c(C(=O)Nc2nnnn2C)cc2cccnc2c1-c1ccc(F)cc1 [Compound 1.035] | 5 (5=80-100%) | 5 (5=80-100%) | 5 (5=80-100%) | 5 (5=80-100%) | 4 (4=60-79%) | 5 (5=80-100%) | 5 (5=80-100%) | 5 (5=80-100%) | 5 (5=80-100%) | 5 (5=80-100%) | 5 (5=80-100%) | 5 (5=80-100%) | – | – | – | – |
| COc1ccc(-c2c(C)c(C(=O)Nc3nnnn3C)cc3ccc(C)nc23)cc1 [Compound 1.037] | 5 (5=80-100%) | 4 (4=60-79%) | 5 (5=80-100%) | 5 (5=80-100%) | 5 (5=80-100%) | 3 (3=40-59%) | 5 (5=80-100%) | 5 (5=80-100%) | 5 (5=80-100%) | 5 (5=80-100%) | 5 (5=80-100%) | 5 (5=80-100%) | – | – | – | – |
| Cc1c(C(=O)Nc2nnnn2C)cc2cccnc2c1-c1ccc(S(C)(=O)=O)cc1 [Compound 1.031, 7-methyl-8-(4-methylsulfonylphenyl)-N-(1-methyltetrazol-5-yl)quinoline-6-carboxamide] | 5 (5=80-100%) | 5 (5=80-100%) | 5 (5=80-100%) | 5 (5=80-100%) | 5 (5=80-100%) | 5 (5=80-100%) | 5 (5=80-100%) | 5 (5=80-100%) | 5 (5=80-100%) | 5 (5=80-100%) | 5 (5=80-100%) | 5 (5=80-100%) | – | – | – | – |
| Cn1nnnc1NC(=O)c1cc2cccnc2c(-c2ccccc2)c1C(F)(F)F [Compound 1.001, N-(1-methyltetrazol-5-yl)-8-phenyl-7-(trifluoromethyl)-quinoline-6-carboxamide] | 5 (5=80-100%) | 5 (5=80-100%) | 5 (5=80-100%) | 5 (5=80-100%) | 5 (5=80-100%) | 5 (5=80-100%) | 5 (5=80-100%) | 5 (5=80-100%) | 5 (5=80-100%) | 5 (5=80-100%) | 5 (5=80-100%) | 5 (5=80-100%) | 5 (5=80-100%) | 3 (3=40-59%) | 5 (5=80-100%) | 5 (5=80-100%) |
| CCn1nnnc1NC(=O)c1cc2cccnc2c(-c2ccccc2)c1C(F)(F)F [Compound 1.002] | 5 (5=80-100%) | 5 (5=80-100%) | 5 (5=80-100%) | 5 (5=80-100%) | 5 (5=80-100%) | 5 (5=80-100%) | 5 (5=80-100%) | 5 (5=80-100%) | 5 (5=80-100%) | 5 (5=80-100%) | 5 (5=80-100%) | 5 (5=80-100%) | – | – | – | – |
| Cc1c(C(=O)Nc2nnnn2C)cc2cccnc2c1-c1ccc(Cl)cc1 [Compound 1.036] | 5 (5=80-100%) | 5 (5=80-100%) | 5 (5=80-100%) | 5 (5=80-100%) | 4 (4=60-79%) | 4 (4=60-79%) | 5 (5=80-100%) | 5 (5=80-100%) | 5 (5=80-100%) | 5 (5=80-100%) | 5 (5=80-100%) | 5 (5=80-100%) | – | – | – | – |
| CSc1ccc(-c2c(C)c(C(=O)Nc3nnnn3C)cc3cccnc23)cc1 [Compound 1.030, 7-methyl-8-(4-methylsulfanylphenyl)-N-(1-methyltetrazol-5-yl)quinoline-6-carboxamide] | 5 (5=80-100%) | 4 (4=60-79%) | 5 (5=80-100%) | 5 (5=80-100%) | 4 (4=60-79%) | 4 (4=60-79%) | 5 (5=80-100%) | 5 (5=80-100%) | 5 (5=80-100%) | 5 (5=80-100%) | 5 (5=80-100%) | 5 (5=80-100%) | – | – | – | – |
